Test results reported in article PMC10691883, “Efficient One-Pot Synthesis of Novel Caffeic Acid Derivatives as Potential Antimalarials” (Journal of Parasitology Research, 2023).
Read-outs that look alike come from different tables or passages of the source.

Experiments:
[1] = MTT cytotoxicity assay on NHDF cells; type: cell-based; conditions: human, NHDF cells (normal human dermal fibroblasts)
Experimental: NHDF cells were grown in alpha-MEM medium supplemented likewise with 10% FBS, L-glutamine, and antibiotic-antimycotic. Cultures were maintained at 37°C, in a humidified Innova CO-180 incubator (New Brunswick Scientific, Edison, NJ, USA) in an atmosphere containing 5% CO2. The cytotoxic effects of CA derivatives were evaluated as described in literature using the standard MTT assay. Briefly, NHDF cells were seeded in a 96-well plate at a density of 5 × 10^3 cells per well in an alpha-MEM medium. Cells were grown overnight and subsequently exposed to the different concentrations of tested compounds dissolved in DMSO. An equivalent volume of DMSO was used as a negative control. After 72 h of incubation, media containing the test compounds were removed, the cells were washed with sterile PBS, and 50 μL of MTT solution (0.5 mg/mL stock solution was 10 times diluted in the appropriate culture medium) was added to each well for 3 h at 37°C. Subsequently, the MTT solution was removed, the formazan crystals were solubilized in DMSO, and absorbance was recorded using an Asys UVM 340 multiwell plate reader (Cambridge, UK) at 560 nm with a reference wavelength of 670 nm. The % of cell viability was calculated using the following formula: Cell viability (%) = (AT/AC) × 100, where AT is the absorbance of the treatment well (treated cells) and AC is the absorbance of the control well (not treated cells). GraphPad Prism software for Windows (GraphPad Software, La Jolla, CA, USA) was used to calculate IC50 values.

[2] = Hemolytic activity against human erythrocytes; type: cell-based; conditions: freshly isolated human red blood cells (erythrocytes), PBS, 37°C
Experimental: Hemolytic activity was measured as described by Jaromin et al. Compounds 3 and 4, dissolved in DMSO, were added in a volume corresponding to a final concentration of 12.5 μM and then incubated with freshly isolated human red blood cells in PBS buffer at 37°C for 30 min. After centrifugation, the absorbance was determined at 540 nm, to assess the released hemoglobin. In addition, negative (erythrocytes in PBS buffer), positive (erythrocytes in distilled water), and DMSO controls were also performed. The study protocol was approved by the Bioethics Commission at the Lower Silesian Medical Chamber (1/PNHAB/2018).

[3] = test system: P. falciparum D10 (CQ-sensitive) strain; assay: P. falciparum drug susceptibility assay (pLDH), CQ-sensitive strain D10; type: cell-based; conditions: for SID10: IC50(NHDF)/IC50(D10); for IC50: Plasmodium falciparum
Experimental: (§1) P. falciparum cultures were prepared and maintained according to the method of Trager and Jensen, with slight modifications. […] Serial dilutions of the compounds were prepared in 96-well flat-bottomed microplates. […] Parasite growth was determined spectrophotometrically (OD650) by measuring the activity of parasite lactate dehydrogenase (pLDH), according to a modified version of the method of Makler and Hinrichs, in control and compound-treated cultures.

[4] = test system: P. falciparum W2 (CQ-resistant) strain; assay: P. falciparum drug susceptibility assay (pLDH), CQ-resistant strain W2; type: cell-based; conditions: for SIW2: IC50(NHDF)/IC50(W2); for IC50: Plasmodium falciparum, read-out: P. falciparum IC50 W2
Experimental: as §1

[5] = test system: NHDF cells (normal human dermal fibroblasts); conditions: read-out: Cytotoxicity IC50, MTT; cited from earlier work
P. berghei = test system: P. berghei; parameters: method as in PMID 30033538; conditions: 100 mg/kg, in vivo; cited from earlier work
[6] = D10 CQ-sensitive strain, 72 h, pLDH, mean ± SD, read-out: P. falciparum IC50 D10
[7] = strain not given (D10 and/or W2), read-out: P. falciparum IC50
[8] = W2 CQ-resistant strain, 72 h, pLDH, mean ± SD

| melting point [°C] | IC50 [3, 6] [µM] | IC50 [3, 7] [µM] | fold decrease of IC50 versus compound 1 ([4]; CQ-resistant strain, 4 compared with 1) [times] | IC50 [4, 8] [µM] | Structure (SMILES) | IC50 at 72 h [1] [µM] | hemolysis at 30 min, 12.5 µM [2] [%] | SID10 [3] | SIW2 [4] | RI (resistance index) ([4]; ratio IC50 W2 / IC50 D10) | IC50 [5] [µM] | IC50 ([3]; D10, 72 h, read-out: P. falciparum IC50 D10) [µM] | IC50 ([4]; W2, 72 h) [µM] | P. berghei inhibition growth (P. berghei) [%] |
| --- | --- | --- | --- | --- | --- | --- | --- | --- | --- | --- | --- | --- | --- | --- |
| 175 | 12.2 ± 4.9 | 11 to 12.7 | 7.9 | 11 ± 4.88 | CC(C)(C)OC(=O)/C=C/c1ccc(O)c(O)c1O [Compound 4, tert-Butyl (2E)-3-(2,3,4-Trihydroxyphenyl)-propenoate] | 90.3 ± 10.3 | 52.9 ± 2.93 | 7.42 | 8.24 | – | – | – | – | – |
| 172 to 173 | 42.1 ± 9.12 | – | – | 38.8 ± 17.8 | CCOC(=O)/C=C/c1ccc(O)c(O)c1O [Compound 2, Ethyl (2E)-3-(2,3,4-Trihydroxyphenyl)-propenoate] | 115 ± 1.76 | – | 2.74 | 2.98 | – | – | – | – | – |
| 88.3 | 129 ± 59.6 | 145 | – | 117 ± 35.9 | CC(C)(C)OC(=O)/C=C/c1ccc(O)c(F)c1 [Compound 6, tert-Butyl (2E)-3-(3-Fluoro-4-hydroxyphenyl)-propenoate] | 229 ± 7.57 | – | 1.77 | 1.95 | – | – | – | – | – |
| – | 145 ± 53.6 | 117 | – | 131 ± 52.7 | CCOC(=O)/C(C)=C/c1ccc(O)c(F)c1 [Compound 5, Ethyl (2E)-3-(3-Fluoro-4-hydroxyphenyl)-2-methylpropenoate] | – | – | – | – | – | – | – | – | – |
| 140 | 12.7 ± 2.33 | 11 to 12.7 | – | 11.3 ± 4.81 | CCOC(=O)/C(C)=C/c1ccc(O)c(O)c1O [Compound 3, Ethyl (2E)-3-(2,3,4-Trihydroxyphenyl)-2-methylpropenoate] | 79.2 ± 6.14 | 4.13 ± 0.85 | 6.23 | 7.02 | – | – | – | – | – |

Further lines, the compound ahead of its results:

| Structure (SMILES) | melting point [°C] | IC50 [3, 6] [µM] | IC50 [3, 7] [µM] | fold decrease of IC50 versus compound 1 ([4]; CQ-resistant strain, 4 compared with 1) [times] | IC50 [4, 8] [µM] | IC50 at 72 h [1] [µM] | hemolysis at 30 min, 12.5 µM [2] [%] | SID10 [3] | SIW2 [4] | RI (resistance index) ([4]; ratio IC50 W2 / IC50 D10) | IC50 [5] [µM] | IC50 ([3]; D10, 72 h, read-out: P. falciparum IC50 D10) [µM] | IC50 ([4]; W2, 72 h) [µM] | P. berghei inhibition growth (P. berghei) [%] |
| --- | --- | --- | --- | --- | --- | --- | --- | --- | --- | --- | --- | --- | --- | --- |
| CC(C)(C)OC(=O)/C=C/c1ccc(O)cc1O [Compound 1, tert-Butyl (2E)-3-(2,4-Dihydroxyphenyl)-propenoate] | – | 28.6 ± 1.94 | – | – | 86.4 ± 27.4 | 249.8 ± 0.51 | – | 8.73 | 2.89 | 3.02 | – | – | – | – |
| CCN(CC)CCCC(C)Nc1ccnc2cc(Cl)ccc12 (centres unmarked) [CQ, chloroquine, reference compound] | – | – | – | – | – | – | – | 2047.5 | 178.04 | – | 41 ± 2.29 | 0.02 ± 0.01 | 0.23 ± 0.08 | – |
| O=C(O)/C=C/c1ccc(O)c(O)c1 [CA, (E)-3-(3,4-dihydroxyphenyl)prop-2-enoic acid, reference compound] | – | > 278 | – | – | > 278 | – | – | – | – | – | – | – | – | – |
| CCOC(=O)/C=C/c1ccc(O)c(O)c1 [Ethyl caffeate] | – | – | – | – | – | – | – | – | – | – | – | – | – | 55 |
